# Test system: PSYLI2 cells
# Assay: PsychLight assays (agonist and antagonist mode)
# Assay type: cell-based
# Conditions: FIG. 3C-3E; agonist mode concentration-response, antagonist mode 1 μM
# Procedure: PsychLight Assays. Psychlight assays were performed using a previously published method. Briefly, glass bottom 96-well plates were coated with 50 μg/mL of poly-D-lysine overnight at room temperature and then washed with Dulbecco's PBS. PSYLI2 cells were suspended in DMEM containing 10% FBS with 5% penicillin-streptomycin, plated at a density of 40,000 cells/well, and incubated (37° C., 5% CO2) for 24 h prior to each experiment. Immediately before an experiment, stock solutions of drugs in DMSO were diluted 1:100 in imaging media distributed across an empty 96-well plate (treatment plate) following a randomized plate map. The imaging media consisted of 1×HBSS containing […] and […]. […] Data were from 2 plates with 2-3 wells being analyzed per plate. […]
# Once imaging was complete, the images were exported, and analyzed using a custom Python script. […] The mask was generated by calculating the average fluorescence intensity for the entire image and using that value as a threshold. […] The % ΔF/F values for each well were calculated using the following equation: […]
# Once imaging was complete, the images were exported, and analyzed using a custom Python script. […] The mask was generated by calculating the average fluorescence intensity for the entire image and using that value as a threshold. […]
structure (smiles),measurement,value
CCN(CC)C(=O)[C@H]1C=C2c3cccc4ccn(c34)C[C@@H]2N(C)C1 [(−)-JRT],hallucinogenic potential (psychLight),low hallucinogenic potential

# Source: patent publication US12637464B2, “Tetracyclic compounds for treating brain disorders” (The Regents of the University of California, priority 2021, dated 2026)
